From US20260078145A1, “Polypeptides having cholesterol-lowering function in soybean protein hydrolysate, preparation method thereof, and uses thereof” (WUHAN ZHENFU INNOVATION BIOPHARMACEUTICAL CO., LTD, priority 2023, published 2026)
Read-outs that look alike come from different tables or passages of the source. Marks after values point to notes of the source that are not given here. Ends that are not written are not given here.

Tests used:
[1] = Rat body weight during oral gavage
Description: A hyperlipidemic animal model was established as follows: Forty healthy adult male Sprague-Dawley (SD) rats, weighing 200±20 g, were used. A blank control group of 10 rats was fed a standard diet. The remaining 30 rats constituted the modeling group and were fed a high-fat diet (commercially available, 60% fat content).
The blank control group and the model control group were administered an equal volume of 0.9% physiological saline by oral gavage. The other two groups were administered aqueous solutions of the test samples by oral gavage.
During the gavage period, the blank control group was fed a standard diet daily, while the other groups continued receiving the high-fat diet. All rats had free access to water. Oral gavage was performed once daily for 4 consecutive weeks, and body weights were measured regularly.

[2] = system: hyperlipidemic rats; test: Serum lipid levels in hyperlipidemic rat model after oral gavage; assay type: in vivo, Sprague-Dawley (SD) rats; conditions: after 4 weeks of oral gavage, high-fat diet rats
Description: After 1-2 weeks of feeding the high-fat diet to the modeling group, blood was collected from the blank control group and the modeling group without fasting (from the inner canthus or tail). Serum was separated as soon as possible after blood collection, and serum levels of Total Cholesterol (TC), Triglycerides (TG), Low-Density Lipoprotein Cholesterol (LDL-C), and High-Density Lipoprotein Cholesterol (HDL-C) were measured. The modeling group was randomly divided into 3 groups (model control group, cholesterol-lowering peptide group, lovastatin control group). No significant differences in TC, TG, LDL-C, and HDL-C were observed among these groups.
All rats had free access to water.

[3] = rat, in vivo, po

## CC[C@H](C)C(=O)O[C@H]1C[C@@H](C)C=C2C=C[C@H](C)[C@H](CC[C@@H]3C[C@@H](O)CC(=O)O3)[C@H]21 [Lovastatin]
[1]; Day 14 and Day 28 of administration, compared among groups
  effect on rat body weight: no significant effect
[1]; high-fat diet rats, oral gavage once daily, Day 0
  Body Weight (g) At Day 0 of Administration: 200.78 g
[1]; high-fat diet rats, oral gavage once daily, Day 14
  Body Weight (g) At Day 14 of Administration: 221.16 g
[1]; high-fat diet rats, oral gavage once daily, Day 28
  Body Weight (g) At Day 28 of Administration: 236.39 g
[2]
  High-Density Lipoprotein Cholesterol (HDL-C): 0.54**
  Low-Density Lipoprotein Cholesterol (LDL-C): 0.32**
  Total Cholesterol (TC): 3.06**
  Triglycerides (TG): 0.98**

## FFFPF [FFFPF]
[3]
  Body Weight (g) At Day 0 of Administration: 200.89 g
  Body Weight (g) At Day 14 of Administration: 220.75 g
  Body Weight (g) At Day 28 of Administration: 237.35 g
